How the values were obtained:
NET = NET (Rattus norvegicus, UniProt Q63380); test: NET-mediated release of [3H]MPP+ from rat brain synaptosomes; format: biochemical; conditions: read-out: NET-mediated release Emax
D3 = D3 (Homo sapiens, UniProt P35462); test: Radioligand binding
β2 = β2 (Homo sapiens, UniProt P07550); test: Radioligand binding
DAT = DAT (Homo sapiens, UniProt Q01959); test: Radioligand binding
σ1 = σ1 (Rattus norvegicus, UniProt Q9R0C9); test: Radioligand binding
D4 = biological target: T1, D4 (Homo sapiens, UniProt P21917); test: Radioligand binding
T1 sequence (P21917 1-419): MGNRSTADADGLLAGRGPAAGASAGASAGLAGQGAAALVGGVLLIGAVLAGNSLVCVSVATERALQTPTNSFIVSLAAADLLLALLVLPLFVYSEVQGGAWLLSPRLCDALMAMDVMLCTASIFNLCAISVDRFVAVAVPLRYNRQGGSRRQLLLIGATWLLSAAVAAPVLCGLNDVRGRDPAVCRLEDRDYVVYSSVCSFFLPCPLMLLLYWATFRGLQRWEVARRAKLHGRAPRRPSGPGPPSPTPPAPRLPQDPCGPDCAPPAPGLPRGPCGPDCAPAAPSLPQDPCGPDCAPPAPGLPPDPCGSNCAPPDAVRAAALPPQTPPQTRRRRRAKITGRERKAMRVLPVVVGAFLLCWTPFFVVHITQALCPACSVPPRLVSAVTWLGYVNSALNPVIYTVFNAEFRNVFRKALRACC

α1B = biological target: T2, α1B (Homo sapiens, UniProt P35368); test: Radioligand binding
T2 sequence (P35368 1-520): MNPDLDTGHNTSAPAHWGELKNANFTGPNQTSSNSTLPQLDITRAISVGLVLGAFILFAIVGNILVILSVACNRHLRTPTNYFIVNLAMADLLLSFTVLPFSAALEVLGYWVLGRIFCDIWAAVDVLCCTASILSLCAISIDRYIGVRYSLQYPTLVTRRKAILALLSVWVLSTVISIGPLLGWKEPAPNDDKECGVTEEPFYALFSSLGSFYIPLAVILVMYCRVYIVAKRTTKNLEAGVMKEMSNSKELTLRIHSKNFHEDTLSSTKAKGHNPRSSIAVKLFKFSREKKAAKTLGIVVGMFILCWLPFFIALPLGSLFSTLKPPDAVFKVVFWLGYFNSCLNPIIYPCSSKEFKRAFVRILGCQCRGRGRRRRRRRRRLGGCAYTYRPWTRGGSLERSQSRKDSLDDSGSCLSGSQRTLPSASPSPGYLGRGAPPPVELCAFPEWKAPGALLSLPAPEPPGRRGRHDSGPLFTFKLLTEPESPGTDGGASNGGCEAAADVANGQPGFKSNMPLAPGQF

α1D = biological target: T3, α1D (Homo sapiens, UniProt P25100); test: Radioligand binding
T3 sequence (P25100 1-572): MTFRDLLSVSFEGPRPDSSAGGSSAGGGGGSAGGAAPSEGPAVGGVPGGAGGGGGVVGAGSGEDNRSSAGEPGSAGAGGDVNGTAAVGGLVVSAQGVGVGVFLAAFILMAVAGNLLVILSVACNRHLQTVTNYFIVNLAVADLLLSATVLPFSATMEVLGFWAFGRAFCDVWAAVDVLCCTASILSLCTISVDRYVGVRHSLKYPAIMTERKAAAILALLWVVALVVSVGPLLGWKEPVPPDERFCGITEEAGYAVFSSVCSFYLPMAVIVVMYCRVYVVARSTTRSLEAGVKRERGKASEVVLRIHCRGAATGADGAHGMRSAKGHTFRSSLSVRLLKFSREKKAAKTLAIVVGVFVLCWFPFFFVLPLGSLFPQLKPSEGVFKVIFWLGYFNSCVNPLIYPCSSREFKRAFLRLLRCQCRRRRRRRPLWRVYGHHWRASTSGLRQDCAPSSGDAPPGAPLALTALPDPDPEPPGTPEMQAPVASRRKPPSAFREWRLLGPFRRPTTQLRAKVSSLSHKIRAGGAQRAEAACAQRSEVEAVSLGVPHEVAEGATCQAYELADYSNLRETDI

α2A = biological target: T4, α2A (Homo sapiens, UniProt P08913); test: Radioligand binding; conditions: for fold lower affinity for α2A compared to 2-AI: binding, [3H]rauwolscine
T4 sequence (P08913 1-465): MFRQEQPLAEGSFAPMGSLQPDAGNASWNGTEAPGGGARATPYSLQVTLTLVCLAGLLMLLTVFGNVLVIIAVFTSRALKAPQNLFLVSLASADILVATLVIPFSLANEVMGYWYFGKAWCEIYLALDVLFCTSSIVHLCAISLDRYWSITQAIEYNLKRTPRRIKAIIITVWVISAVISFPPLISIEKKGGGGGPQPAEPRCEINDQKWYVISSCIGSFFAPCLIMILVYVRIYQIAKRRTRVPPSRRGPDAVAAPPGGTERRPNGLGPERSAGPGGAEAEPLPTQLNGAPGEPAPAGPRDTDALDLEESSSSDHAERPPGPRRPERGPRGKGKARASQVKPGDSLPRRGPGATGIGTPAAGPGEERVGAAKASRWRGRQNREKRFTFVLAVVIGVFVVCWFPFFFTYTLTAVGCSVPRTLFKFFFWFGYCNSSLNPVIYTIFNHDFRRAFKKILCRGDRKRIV

5-HT5A = 5-HT5A (Homo sapiens, UniProt P47898); test: Radioligand binding
Sequence of 5-HT5A (P47898 whole entry): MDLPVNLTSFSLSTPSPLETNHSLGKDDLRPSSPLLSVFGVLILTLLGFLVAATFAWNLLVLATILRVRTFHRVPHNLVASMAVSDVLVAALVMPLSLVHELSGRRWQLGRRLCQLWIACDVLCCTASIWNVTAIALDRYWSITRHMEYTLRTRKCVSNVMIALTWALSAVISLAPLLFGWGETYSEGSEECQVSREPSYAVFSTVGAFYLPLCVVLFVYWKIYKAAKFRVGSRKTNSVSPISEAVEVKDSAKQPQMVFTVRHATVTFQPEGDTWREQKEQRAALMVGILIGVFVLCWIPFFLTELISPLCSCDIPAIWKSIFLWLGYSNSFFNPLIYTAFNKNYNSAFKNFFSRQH

SERT = SERT (Rattus norvegicus, UniProt P31652); test: SERT-mediated release of [3H]5-HT from rat brain synaptosomes; format: biochemical; conditions: for Emax: read-out: SERT-mediated release Emax
Sequence of SERT (P31652 whole entry): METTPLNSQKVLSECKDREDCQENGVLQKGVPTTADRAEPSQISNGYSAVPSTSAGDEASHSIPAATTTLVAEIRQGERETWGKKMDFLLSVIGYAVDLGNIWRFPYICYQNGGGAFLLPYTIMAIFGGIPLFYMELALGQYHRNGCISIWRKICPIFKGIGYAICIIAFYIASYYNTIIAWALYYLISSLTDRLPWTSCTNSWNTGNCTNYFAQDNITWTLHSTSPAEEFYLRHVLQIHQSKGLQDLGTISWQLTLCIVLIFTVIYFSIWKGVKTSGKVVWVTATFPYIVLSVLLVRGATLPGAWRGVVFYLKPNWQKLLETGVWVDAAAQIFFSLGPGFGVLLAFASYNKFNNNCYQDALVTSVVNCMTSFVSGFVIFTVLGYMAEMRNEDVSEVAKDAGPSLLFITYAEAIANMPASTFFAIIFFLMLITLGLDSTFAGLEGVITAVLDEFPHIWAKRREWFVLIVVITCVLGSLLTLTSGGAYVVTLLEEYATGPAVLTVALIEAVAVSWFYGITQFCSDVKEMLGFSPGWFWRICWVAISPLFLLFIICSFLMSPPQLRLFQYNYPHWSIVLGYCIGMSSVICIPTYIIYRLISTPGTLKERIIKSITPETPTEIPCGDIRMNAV

5-HT2C = biological target: T5, 5-HT2C (Homo sapiens, UniProt P28335); test: Radioligand binding
T5 sequence (P28335 33-458): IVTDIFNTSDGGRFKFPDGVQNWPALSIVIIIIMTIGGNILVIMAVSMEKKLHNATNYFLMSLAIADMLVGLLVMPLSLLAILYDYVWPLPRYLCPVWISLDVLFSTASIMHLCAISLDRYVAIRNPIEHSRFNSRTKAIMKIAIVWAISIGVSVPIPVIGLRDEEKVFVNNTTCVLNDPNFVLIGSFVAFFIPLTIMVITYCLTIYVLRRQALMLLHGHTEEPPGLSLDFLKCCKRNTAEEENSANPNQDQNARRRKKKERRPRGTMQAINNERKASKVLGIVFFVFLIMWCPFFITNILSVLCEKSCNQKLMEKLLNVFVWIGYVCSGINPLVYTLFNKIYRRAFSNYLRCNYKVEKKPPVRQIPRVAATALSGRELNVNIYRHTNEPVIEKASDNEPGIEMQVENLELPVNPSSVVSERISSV

D5 = D5 (Homo sapiens, UniProt P21918); test: Radioligand binding
Sequence of D5 (P21918 whole entry): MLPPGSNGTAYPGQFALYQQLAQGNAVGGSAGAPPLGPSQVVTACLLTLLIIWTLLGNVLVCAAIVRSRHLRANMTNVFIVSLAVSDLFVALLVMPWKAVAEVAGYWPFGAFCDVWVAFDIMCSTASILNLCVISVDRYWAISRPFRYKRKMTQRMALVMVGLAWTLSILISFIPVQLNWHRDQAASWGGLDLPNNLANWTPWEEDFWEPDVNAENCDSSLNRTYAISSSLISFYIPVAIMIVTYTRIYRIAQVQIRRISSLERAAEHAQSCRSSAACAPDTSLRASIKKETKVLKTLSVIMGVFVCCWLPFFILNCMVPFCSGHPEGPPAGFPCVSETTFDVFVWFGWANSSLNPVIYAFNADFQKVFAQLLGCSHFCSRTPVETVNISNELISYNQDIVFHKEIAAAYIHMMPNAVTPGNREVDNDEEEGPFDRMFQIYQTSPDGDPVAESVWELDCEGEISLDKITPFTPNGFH

Sequence of D3 (P35462 whole entry): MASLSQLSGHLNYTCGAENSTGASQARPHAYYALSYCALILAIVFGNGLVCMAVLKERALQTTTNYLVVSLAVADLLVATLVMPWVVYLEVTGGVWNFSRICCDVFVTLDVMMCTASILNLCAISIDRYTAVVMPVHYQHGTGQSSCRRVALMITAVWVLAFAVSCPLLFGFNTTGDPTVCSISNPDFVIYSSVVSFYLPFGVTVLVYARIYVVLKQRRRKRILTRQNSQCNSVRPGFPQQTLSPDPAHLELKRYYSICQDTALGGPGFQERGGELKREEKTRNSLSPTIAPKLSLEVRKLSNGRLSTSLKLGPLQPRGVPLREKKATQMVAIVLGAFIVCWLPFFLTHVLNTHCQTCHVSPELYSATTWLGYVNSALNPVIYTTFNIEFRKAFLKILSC
Sequence of NET (Q63380 1-617): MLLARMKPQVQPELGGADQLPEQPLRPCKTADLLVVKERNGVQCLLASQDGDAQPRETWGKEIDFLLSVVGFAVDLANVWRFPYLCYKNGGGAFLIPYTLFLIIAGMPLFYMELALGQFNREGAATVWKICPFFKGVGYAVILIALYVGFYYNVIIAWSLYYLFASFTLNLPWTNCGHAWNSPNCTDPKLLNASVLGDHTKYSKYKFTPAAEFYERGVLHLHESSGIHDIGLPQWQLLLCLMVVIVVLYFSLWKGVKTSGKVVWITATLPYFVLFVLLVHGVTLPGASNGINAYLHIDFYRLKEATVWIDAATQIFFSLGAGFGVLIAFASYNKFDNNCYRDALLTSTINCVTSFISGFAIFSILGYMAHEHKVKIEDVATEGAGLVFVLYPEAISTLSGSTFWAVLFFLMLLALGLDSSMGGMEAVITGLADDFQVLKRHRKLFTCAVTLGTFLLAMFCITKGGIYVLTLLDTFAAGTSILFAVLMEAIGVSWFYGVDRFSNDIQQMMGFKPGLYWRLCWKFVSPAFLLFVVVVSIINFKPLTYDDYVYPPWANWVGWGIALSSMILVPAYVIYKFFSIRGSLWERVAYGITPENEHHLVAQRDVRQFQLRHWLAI
Sequence of β2 (P07550 whole entry): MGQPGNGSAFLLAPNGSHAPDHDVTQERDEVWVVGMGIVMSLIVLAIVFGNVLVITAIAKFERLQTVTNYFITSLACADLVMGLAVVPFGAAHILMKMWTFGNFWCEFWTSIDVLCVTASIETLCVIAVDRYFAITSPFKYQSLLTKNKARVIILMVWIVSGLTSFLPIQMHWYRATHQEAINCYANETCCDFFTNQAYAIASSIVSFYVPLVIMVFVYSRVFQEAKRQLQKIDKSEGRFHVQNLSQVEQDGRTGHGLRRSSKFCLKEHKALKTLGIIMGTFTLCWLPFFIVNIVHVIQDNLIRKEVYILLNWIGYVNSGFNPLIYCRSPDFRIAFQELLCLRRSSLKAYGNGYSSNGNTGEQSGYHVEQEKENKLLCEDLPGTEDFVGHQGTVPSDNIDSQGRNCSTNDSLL
Sequence of DAT (Q01959 whole entry): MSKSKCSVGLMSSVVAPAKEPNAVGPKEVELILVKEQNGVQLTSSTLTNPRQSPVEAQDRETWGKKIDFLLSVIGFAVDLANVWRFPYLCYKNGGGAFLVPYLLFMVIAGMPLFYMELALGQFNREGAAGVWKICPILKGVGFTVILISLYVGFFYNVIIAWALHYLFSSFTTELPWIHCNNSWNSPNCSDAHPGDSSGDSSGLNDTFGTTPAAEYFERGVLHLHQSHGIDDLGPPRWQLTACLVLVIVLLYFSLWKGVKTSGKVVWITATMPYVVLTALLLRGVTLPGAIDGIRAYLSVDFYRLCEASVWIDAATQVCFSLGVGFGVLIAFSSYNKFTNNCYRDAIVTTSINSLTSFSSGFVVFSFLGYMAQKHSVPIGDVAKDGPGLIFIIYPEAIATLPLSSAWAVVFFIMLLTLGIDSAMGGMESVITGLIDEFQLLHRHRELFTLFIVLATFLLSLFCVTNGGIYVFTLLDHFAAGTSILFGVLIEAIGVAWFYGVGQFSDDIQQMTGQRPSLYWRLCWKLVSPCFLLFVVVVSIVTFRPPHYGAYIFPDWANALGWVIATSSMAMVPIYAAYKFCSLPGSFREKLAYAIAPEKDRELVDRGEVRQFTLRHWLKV
Sequence of σ1 (Q9R0C9 whole entry): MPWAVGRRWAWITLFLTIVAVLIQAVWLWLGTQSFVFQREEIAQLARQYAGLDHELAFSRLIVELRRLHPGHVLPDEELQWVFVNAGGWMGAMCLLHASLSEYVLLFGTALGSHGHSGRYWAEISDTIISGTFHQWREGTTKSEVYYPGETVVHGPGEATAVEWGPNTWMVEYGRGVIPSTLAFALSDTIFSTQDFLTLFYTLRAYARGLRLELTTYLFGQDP

| Structure (SMILES) | Emax (NET) | Ki (D3) | Ki (β2) | Ki (DAT) | Ki (σ1) | Ki (D4) | Ki (α1B) | Ki (α1D) | Ki (α2A) | Ki (5-HT5A) | EC50 (SERT) | Emax (SERT) | Ki (5-HT2C) | Ki (D5) | fold lower affinity for α2A compared to 2-AI (α2A) |
| --- | --- | --- | --- | --- | --- | --- | --- | --- | --- | --- | --- | --- | --- | --- | --- |
| NC1Cc2cc3c(cc2C1)OCO3 [MDAI, 5,6-methylenedioxy-2-aminoindan] | 99% | > 10 µM | > 10 µM | > 10 µM | > 10 µM | > 10 µM | > 10 µM | > 10 µM | 0.322 ± 0.114 µM | > 10 µM | 0.114 ± 0.015 µM | 102% | > 10 µM | > 10 µM | – |
| COc1ccc2c(c1)CC(N)C2 (stereo not drawn) [5-MeO-AI, 5-methoxy-2-aminoindan] | 101% | > 10 µM | > 10 µM | > 10 µM | > 10 µM | > 10 µM | > 10 µM | > 10 µM | 0.751 ± 0.338 µM | > 10 µM | 0.134 ± 0.013 µM | 104% | > 10 µM | > 10 µM | 5 fold |
| NC1Cc2ccccc2C1 [2-AI, 2-aminoindan] | 95% | > 10 µM | > 10 µM | > 10 µM | > 10 µM | > 10 µM | > 10 µM | > 10 µM | 0.134 ± 0.031 µM | > 10 µM | > 10 µM | – | > 10 µM | > 10 µM | – |
| COc1cc2c(cc1C)CC(N)C2 (stereo not drawn) [MMAI, 5-methoxy-6-methyl-2-aminoindan] | 105% | > 10 µM | > 10 µM | > 10 µM | > 10 µM | > 10 µM | > 10 µM | > 10 µM | 0.724 ± 0.477 µM | > 10 µM | 0.031 ± 0.005 µM | 99% | > 10 µM | > 10 µM | 5 fold |

Source: paper PMC6848746 (Psychopharmacology, 2019)
